Molecules are shown by their SMILES.

Assay [1] addresses T1, FXR ligand binding domain (Homo sapiens, UniProt Q96RI1).
T1 construct: expressed in transfected cells; host or cells: HEK293 cells, transiently transfected with pCMV-BD-FXR-LBD, pFR-Luc and pRL-CMV
T1 sequence (Q96RI1 187-472 isoform Q96RI1-2): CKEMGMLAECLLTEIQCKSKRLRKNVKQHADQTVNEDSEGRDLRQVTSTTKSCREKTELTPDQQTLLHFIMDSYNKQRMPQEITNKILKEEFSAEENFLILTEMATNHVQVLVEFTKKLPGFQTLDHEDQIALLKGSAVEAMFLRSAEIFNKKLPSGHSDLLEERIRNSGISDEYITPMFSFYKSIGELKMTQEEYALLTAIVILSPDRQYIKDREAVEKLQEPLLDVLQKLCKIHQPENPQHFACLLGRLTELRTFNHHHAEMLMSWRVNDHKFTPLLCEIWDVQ
Briefly: Mammalian One Hybrid (M1H) assay, Gal4 promoter driven transactivation in HEK293 cells. Particulars: Gal4-FXR-LBD luciferase reporter, 16 h. Format: cell-based. The method, boiled down:
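HEK293 cells were transiently co-transfected with Gal4-DBD fused to the human FXR LBD (aa 187-472, NM_005123), a 5×GAL4-site firefly luciferase reporter and CMV-Renilla control. Compounds were added 2-4 h post-transfection (vehicle ≤0.1%) in charcoal/dextran-stripped FBS medium for 16 h. Firefly and Renilla luciferase were read sequentially, in triplicate.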

Assay [2] concerns the target T2, human FXR alpha ligand binding domain (Homo sapiens, UniProt Q96RI1).
T2 construct: made in house; host or cells: E. coli BL21(DE3), vector pDEST15
T2 sequence (Q96RI1 187-472 isoform Q96RI1-2): T1 sequence (Q96RI1 187-472 isoform Q96RI1-2)
Briefly: FRET activity assay (ligand mediated cofactor peptide interaction, LANCE). Format: biochemical. The note with it: GST-FXR-LBD / biotinylated SRC-1 peptide (676-700), read-out: F EC50. Summed up:
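GST-tagged FXR LBD (aa 187–472, E. coli-expressed) at 20–60 ng/well with 200–600 nM biotinylated SRC-1 peptide (676–700), streptavidin-APC and Eu anti-GST in Tris pH 7.5 buffer, 1% DMSO, equilibrated 1 h dark at room temperature. TR-FRET read as 665/615 nm ratio; agonists raise signal above basal.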
(In general: TR-FRET usually uses a lanthanide donor and a delayed reading to cut background.)

By EC50 is commonly meant the concentration needed to bring the measured effect to its halfway point. With `O=C(O)c1cccc([C@]2(O)[C@@H]3CC[C@H]2C[C@H](OCc2c(-c4c(Cl)cccc4Cl)noc2C2CC2)C3)c1` [Example 11-25, 3-((1R,3s,5S,8r)-3-((5-Cyclopropyl-3-(2,6-dichlorophenyl)isoxazol-4-yl)methoxy)-8-hydroxybicyclo[3.2.1]octan-8-yl)benzoic acid], the EC50 in assay [1] is 430 nM; in assay [2], 79 nM.
For `O=C(O)c1ccnc([C@]2(O)[C@@H]3CC[C@H]2C[C@H](OCc2c(-c4c(Cl)cccc4Cl)noc2C2CC2)C3)c1` [Example 11-26], in that order: 1800 nM and 53 nM.
Turning to `O=C(O)c1cc(F)c2nc([C@]3(O)[C@@H]4CC[C@H]3C[C@H](OCc3c(-c5c(Cl)cccc5Cl)noc3C3CC3)C4)sc2c1` [Example 11-27, 2-((1R,3s,5S,8r)-3-((5-cyclopropyl-3-(2,6-dichlorophenyl)isoxazol-4-yl)methoxy)-8-hydroxybicyclo[3.2.1]octan-8-yl)-4-fluorobenzo[d]thiazole-6-carboxylic acid], the EC50 was 1 nM in assay [1] and 3.8 nM in assay [2].
For `O=C(O)c1cc(F)c2nc([C@]3(O)[C@@H]4CC[C@H]3C[C@H](OCc3c(-c5ccccc5OC(F)F)noc3C3CC3)C4)sc2c1` [Example 11-28, 2-((1R,3s,5S,8r)-3-((5-Cyclopropyl-3-(2-(difluoromethoxy)phenyl)isoxazol-4-yl)methoxy)-8-hydroxybicyclo[3.2.1]octan-8-yl)-4-fluorobenzo[d]thiazole-6-carboxylic acid], in that order: 17 nM and 9.7 nM.
Taken in the same sequence, the figures for `O=C(O)c1cc(F)c2nc([C@]3(O)[C@@H]4CC[C@H]3C[C@H](OCc3c(-c5c(Cl)cncc5Cl)noc3C3CC3)C4)sc2c1` [Example 11-29, 2-((1R,3s,5S,8r)-3-((5-cyclopropyl-3-(3,5-dichloropyridin-4-yl)isoxazol-4-yl)methoxy)-8-hydroxybicyclo[3.2.1]octan-8-yl)-4-fluorobenzo[d]thiazole-6-carboxylic acid] were 5.8 nM and 4.3 nM.
As for `O=C(O)c1ccc2nc([C@]3(O)CC[C@@H](OCc4c(-c5c(Cl)cccc5Cl)noc4C4CC4)CC3)sc2c1` [Example 11-30, 2-((1s,4s)-4-((5-Cyclopropyl-3-(2,6-dichlorophenyl)isoxazol-4-yl)methoxy)-1-hydroxycyclohexyl)benzo[d]thiazole-6-carboxylic acid], the half-maximal effective concentration (EC50) in assay [1] was 67 nM; in assay [2], 64 nM.
For `O=C(O)c1cc(F)c2nc([C@]3(O)CC[C@@H](OCc4c(-c5c(Cl)cccc5Cl)noc4C4CC4)CC3)sc2c1` [Example 11-31, 2-((1s,4s)-4-((5-cyclopropyl-3-(2,6-dichlorophenyl)isoxazol-4-yl)methoxy)-1-hydroxycyclohexyl)-4-fluorobenzo[d]thiazole-6-carboxylic acid], the EC50 in assay [1] was 130 nM; in assay [2] it was 50 nM.
Turning to `O=C(O)c1cc(F)c2nc([C@]3(O)CC[C@@H](OCc4c(-c5c(Cl)cncc5Cl)noc4C4CC4)CC3)sc2c1` [Example 11-34, 2-((1s,4s)-4-((5-Cyclopropyl-3-(3,5-dichloropyridin-4-yl)isoxazol-4-yl)methoxy)-1-hydroxycyclohexyl)-4-fluorobenzo[d]thiazole-6-carboxylic acid], the EC50 came to 380 nM in assay [1] and 55 nM in assay [2].
As for `O=C(O)c1ccc2nc([C@@]3(O)[C@@H]4CC5C[C@H]3C[C@](OCc3c(-c6c(Cl)cccc6Cl)noc3C3CC3)(C5)C4)sc2c1` [Example 11-35, 2-((1R,2r,3S,5s,7s)-5-((5-Cyclopropyl-3-(2,6-dichlorophenyl)isoxazol-4-yl)methoxy)-2-hydroxyadamantan-2-yl)benzo[d]thiazole-6-carboxylic acid], the EC50 is 5.2 nM in assay [1] and 9.6 nM in assay [2].
For `O=C(O)c1ccc2nc([C@]3(O)[C@@H]4CC5C[C@H]3C[C@](OCc3c(-c6c(Cl)cccc6Cl)noc3C3CC3)(C5)C4)sc2c1` [Example 11-36, 2-((1R,2s,3S,5s,7s)-5-((5-Cyclopropyl-3-(2,6-dichlorophenyl)isoxazol-4-yl)methoxy)-2-hydroxyadamantan-2-yl)benzo[d]thiazole-6-carboxylic acid], in that order: 930 nM and 1100 nM.
`Cc1onc(-c2c(Cl)cccc2Cl)c1CO[C@@H]1C[C@H]2CC[C@@H](C1)[C@]2(O)c1nc2ccc(C(=O)O)cc2s1` [Example 11-37, 2-((1R,3s,5S,8r)-3-((3-(2,6-Dichlorophenyl)-5-methylisoxazol-4-yl)methoxy)-8-hydroxybicyclo[3.2.1]octan-8-yl)benzo[d]thiazole-6-carboxylic acid]: the EC50 is 43 nM in assay [1] and 8.8 nM in assay [2].
For `Cc1onc(-c2c(Cl)cccc2Cl)c1CO[C@H]1C[C@H]2CC[C@@H](C1)[C@]2(O)c1nc2ccc(C(=O)O)cc2s1` [Example 11-38, 2-((1R,3r,5S,8r)-3-((3-(2,6-Dichlorophenyl)-5-methylisoxazol-4-yl)methoxy)-8-hydroxybicyclo[3.2.1]octan-8-yl)benzo[d]thiazole-6-carboxylic acid], in that order: 460 nM and 270 nM.
Taken in the same sequence, the figures for `Cn1cc(C(=O)O)c2ccc([C@]3(O)CC[C@@H](OCc4c(-c5c(Cl)cccc5Cl)noc4C4CC4)CC3)cc21` [Example 11-42, 6-((1s,4s)-4-((5-Cyclopropyl-3-(2,6-dichlorophenyl)isoxazol-4-yl)methoxy)-1-hydroxycyclohexyl)-1-methyl-1H-indole-3-carboxylic acid] were 36 nM and 20 nM.
Taken in the same sequence, the figures for `O=C(O)c1cnc2cc([C@]3(O)CC[C@@H](OCc4c(-c5c(Cl)cccc5Cl)noc4C4CC4)CC3)ccc2c1` [Example 11-43, 7-((1s,4s)-4-((5-Cyclopropyl-3-(2,6-dichlorophenyl)isoxazol-4-yl)methoxy)-1-hydroxycyclohexyl)quinoline-3-carboxylic acid] were 1800 nM and 16 nM.
Take `O=C(O)c1cccc2nc([C@]3(O)CC[C@@H](OCc4c(-c5c(Cl)cccc5Cl)noc4C4CC4)CC3)ccc12` [Example 11-44, 2-((1s,4s)-4-((5-Cyclopropyl-3-(2,6-dichlorophenyl)isoxazol-4-yl)methoxy)-1-hydroxycyclohexyl)quinoline-5-carboxylic acid]: the EC50 in assay [1] amounted to 120 nM; in assay [2], 49 nM.
Taken in the same sequence, the figures for `CC(C)n1nc(C(=O)O)c2ccc([C@]3(O)CC[C@@H](OCc4c(-c5c(Cl)cccc5Cl)noc4C4CC4)CC3)cc21` [Example 11-45, 6-((1s,4s)-4-((5-Cyclopropyl-3-(2,6-dichlorophenyl)isoxazol-4-yl)methoxy)-1-hydroxycyclohexyl)-1-isopropyl-1H-indazole-3-carboxylic acid] were 140 nM and 7 nM.
For `O=C(O)c1cc(F)c2nc(C3(O)C[C@H]4CC(OCc5c(-c6c(Cl)cccc6Cl)noc5C5CC5)C[C@H]4C3)sc2c1` (stereo partly drawn) [Example 11-46, 2-((3aR,6aS)-5-((5-Cyclopropyl-3-(2,6-dichlorophenyl)isoxazol-4-yl)methoxy)-2-hydroxyoctahydropentalen-2-yl)-4-fluorobenzo[d]thiazole-6-carboxylic acid], in that order: 180 nM and 44 nM.
Taken in the same sequence, the figures for `O=C(O)c1ccc(C2(O)C[C@H]3CC(OCc4c(-c5c(Cl)cccc5Cl)noc4C4CC4)C[C@H]3C2)c(F)c1` (stereo partly drawn) [Example 11-47, 4-((3aR,6aS)-5-((5-Cyclopropyl-3-(2,6-dichlorophenyl)isoxazol-4-yl)methoxy)-2-hydroxyoctahydropentalen-2-yl)-3-fluorobenzoic acid] were 99 nM and 12 nM.
For the compound `O=C(O)c1cc(F)c2nc([C@]3(O)CC4CC3CC4OCc3c(-c4c(Cl)cccc4Cl)noc3C3CC3)sc2c1` (stereo partly drawn) [Example 11-49, 2-((1R,2S,4R)-5-((5-Cyclopropyl-3-(2,6-dichlorophenyl)isoxazol-4-yl)methoxy)-2-hydroxybicyclo[2.2.1]heptan-2-yl)-4-fluorobenzo[d]thiazole-6-carboxylic acid], the results for the EC50 in assay [1] and in assay [2] were 93 nM and 28 nM, respectively.
On to `Cc1cccc(C)c1OCc1noc(C2CC2)c1CO[C@@H]1C[C@H]2CC[C@@H](C1)[C@]2(O)c1nc2c(F)cc(C(=O)O)cc2s1` [Example 11-50, 2-((1R,3s,5S,8r)-3-((5-Cyclopropyl-3-((2,6-dimethylphenoxy)methyl)isoxazol-4-yl)methoxy)-8-hydroxybicyclo[3.2.1]octan-8-yl)-4-fluorobenzo[d]thiazole-6-carboxylic acid], for which the concentration for a half-maximal effect (EC50) turned out to be 6.4 nM in assay [1] and 82 nM in assay [2].

The values are drawn from patent publication US9751874B2, “Hydroxy containing FXR (NR1H4) modulating compounds” (Gilead Sciences, Inc., priority 2014, dated 2017).
